{"source": "patent US5254584A", "about": "“N-acetonylbenzamides and their use as fungicides” (Rohm and Haas Company, priority 1992, dated 1993)", "key": {"bean plants": {"test_system": "bean plants", "experiment": "In vivo phytotoxic activity, foliar spray, bean", "set-up": "key: +: indicating presence of a plant growth regulatory effect as compared to a control to which a solvent mixture (acetone/water/methanol) lacking the test compound was applied; 0: A zero indicates no apparent effect", "conditions": "foliar spray 2200 g/Ha, seven days after application", "method": "(§1) The compounds of Examples 1 and 12 were tested in vivo for phytotoxic activity by applying the compounds to the foliage of cucumber, tomato, bean, lettuce and strawberry plants as a spray at a rate of 2200 g/Ha. The plants were evaluated seven days after spray application of the compounds.\n(§2) Phototoxicity scores are set forth below in Table 6. The phytotoxicity scores use a symbol, \"+\", indicating presence of a plant growth regulatory effect as compared to a control to which a solvent mixture (acetone/water/methanol) lacking the test compound was applied. A zero indicates no apparent effect. Each score is a composite representing the mode value for three replicate plants."}, "Venturia inaequalis": {"test_system": "Venturia inaequalis", "experiment": "Fungitoxicity assay against Venturia inaequalis (in vitro, microtiter MIC)", "assay_type": "cell-based", "conditions": "168 h, minimum inhibitory concentration, 7 days at 25° C.", "method": "The compounds of Examples 1-20 were tested in vitro for fungicidal activity and phytotoxicity. A. The compounds were tested in vitro for fungicidal activity against Pythium ultimum, Botrytis cinerea and Venturia inaequalis. Fungitoxicity assay against Venturia inaequalis: Test compounds were dissolved in dimethylsulfoxide at 1 milligram per milliliter (mg/ml), and 50 ul added to 950 ul of yeast extract-dextrose medium (YED, 0.4% yeast extract, 2% dextrose) to give 50 part per million (ppm) solutions. Minimum inhibitory concentration (MIC) values were determined using a microtiter assay with twofold serial dilutions of the prepared 50 ppm solutions (100 ul) in YED medium. Inoculum consisted of a spore suspension of V. inaequalis in YED medium at 2.5×10^5 spores per ml. […] Results of the testing for fungicidal activity against the above named fungi are set forth below in Table 3 as Pythium EC50 (ppm), Botrytis EC50 (ppm) and Venturia MIC (ppm), respectively."}, "tomato plants": {"test_system": "tomato plants", "experiment": "In vivo phytotoxic activity, foliar spray, tomato", "set-up": "key: +: indicating presence of a plant growth regulatory effect as compared to a control to which a solvent mixture (acetone/water/methanol) lacking the test compound was applied; 0: A zero indicates no apparent effect", "conditions": "foliar spray 2200 g/Ha, seven days after application", "method": "as §1, §2"}, "lettuce plants": {"test_system": "lettuce plants", "experiment": "In vivo phytotoxic activity, foliar spray, lettuce", "set-up": "key: +: indicating presence of a plant growth regulatory effect as compared to a control to which a solvent mixture (acetone/water/methanol) lacking the test compound was applied; 0: A zero indicates no apparent effect", "conditions": "foliar spray 2200 g/Ha, seven days after application", "method": "as §1, §2"}, "strawberry plants": {"test_system": "strawberry plants", "experiment": "In vivo phytotoxic activity, foliar spray, strawberry", "set-up": "key: +: indicating presence of a plant growth regulatory effect as compared to a control to which a solvent mixture (acetone/water/methanol) lacking the test compound was applied; 0: A zero indicates no apparent effect", "conditions": "foliar spray 2200 g/Ha, seven days after application", "method": "as §1, §2"}, "Botrytis cinerea": {"test_system": "Botrytis cinerea", "experiment": "Fungitoxicity assay against Botrytis cinerea (in vitro, colony diameter)", "assay_type": "cell-based", "conditions": "48 hours at 25° C., read-out: Botrytis EC50", "method": "The compounds of Examples 1-20 were tested in vitro for fungicidal activity and phytotoxicity. A. The compounds were tested in vitro for fungicidal activity against Pythium ultimum, Botrytis cinerea and Venturia inaequalis. Fungitoxicity assay against Botrytis cinerea: […] The mixtures were poured immediately into 9 centimeter (cm) diameter petri dishes. Two replicate plates were used for each treatment. Each plate was inoculated with a 7 mm diameter plug taken from the growing edge of a 5 day old culture of B. cinerea on potato dextrose agar. […] Results of the testing for fungicidal activity against the above named fungi are set forth below in Table 3 as Pythium EC50 (ppm), Botrytis EC50 (ppm) and Venturia MIC (ppm), respectively."}, "cucumber plants": {"test_system": "cucumber plants", "experiment": "In vivo phytotoxic activity, foliar spray, cucumber", "set-up": "key: +: indicating presence of a plant growth regulatory effect as compared to a control to which a solvent mixture (acetone/water/methanol) lacking the test compound was applied; 0: A zero indicates no apparent effect", "conditions": "foliar spray 2200 g/Ha, seven days after application", "method": "as §1, §2"}, "Pythium ultimum": {"test_system": "Pythium ultimum", "experiment": "Fungitoxicity assay against Pythium ultimum (in vitro, mycelial dry weight)", "assay_type": "cell-based", "conditions": "Globisporangium ultimum, 48 hours at 25° C., read-out: Pythium EC50", "method": "The compounds of Examples 1-20 were tested in vitro for fungicidal activity and phytotoxicity. A. The compounds were tested in vitro for fungicidal activity against Pythium ultimum, Botrytis cinerea and Venturia inaequalis. Fungitoxicity assay against Pythium ultimum: A dilution series of test compound was prepared in dimethylsulfoxide, and 0.1 milliliter (ml) of each dilution was added to 19.9 ml of a liquid asparagine-sucrose broth ([…]. and Katznelson, K., 1971, Can. J. […] Each plate was inoculated with a mycelial plug, 7 millimeters (mm) in diameter, taken from the growing edge of a culture of Pythium ultimum grown on potato dextrose agar. Two replicate plates were used for each treatment. The increase in mycelial dry weight was determined after growth for 48 hours at 25° C. with shaking on a gyrotary shaker at 60 revolutions per minute (rpm). EC50 values were calculated from dose response curves. As used herein, the terminology \"EC50\" means the concentration of test compound required to inhibit growth by 50% as compared to a control lacking the test compound. Results of the testing for fungicidal activity against the above named fungi are set forth below in Table 3 as Pythium EC50 (ppm), Botrytis EC50 (ppm) and Venturia MIC (ppm), respectively."}, "[1]": {"experiment": "Tobacco root assay for phytotoxicity (in vitro root elongation)", "conditions": "7 days, 27° C., read-out: Tob. EC50", "method": "The compounds of Examples 1-20 were tested in vitro for fungicidal activity and phytotoxicity.\nB. The compounds were tested in vitro for phytotoxicity in a tobacco root elongation assay.\nTobacco root assay for Phytotoxicity:\nA dilution series of test compound was prepared in dimethylsulfoxide and 20 ul of each dilution was added to 20 ml of molten nutrient medium, consisting of Murashige and Skoog salt base, 2% sucrose and 1% agar, to give the desired concentrations of test compound. The mixtures were poured immediately into 9 cm diameter petri dishes. Surface-sterilized tobacco seeds were placed on each plate (20 seeds per plate) and the plates incubated in a vertical position in a 27° C. incubator with a 16 hour photoperiod. After 7 days the mean root lengths were calculated, and EC50 values determined from dose response curves.\nResults of the tobacco root assay are set forth below in Table 3 as Tob. EC50 (ppm)."}}, "data": [{"smiles": "CCC(C)(NC(=O)c1cccc(C=NOC)c1)C(=O)CCl", "note": "(stereo not drawn) [Example 1, 3-(3'-Methoxyiminomethylbenzamido)-1-chloro-3-methylpentan-2-one]", "values": [{"measurement": "phytotoxicity score, Bean", "setting": "bean plants", "value": 0}, {"measurement": "MIC", "setting": "Venturia inaequalis", "value": 1.56, "unit": "µg/mL"}, {"measurement": "phytotoxicity score, Tomato", "setting": "tomato plants", "value": 0}, {"measurement": "phytotoxicity score, Lettuce", "setting": "lettuce plants", "value": 0}, {"measurement": "phytotoxicity score, Strawberry", "setting": "strawberry plants", "value": "+"}, {"measurement": "IC50", "setting": "Botrytis cinerea", "value": 9.5, "unit": "µg/mL"}, {"measurement": "phytotoxicity score, Cucumber", "setting": "cucumber plants", "value": 0}, {"measurement": "IC50", "setting": "Pythium ultimum", "value": 0.31, "unit": "µg/mL"}, {"measurement": "IC50 at 168 h", "setting": "[1]", "value": 1.86, "unit": "µg/mL"}]}]}
